Experimental data as given in US12365696B2, “Small-molecule focal adhesion kinase (FAK) inhibitors” (DANA-FARBER CANCER INSTITUTE, INC., priority 2019, dated 2025).

What was measured:
Assay in all cases: KINOMEscan
Assay type in all cases: binding
[1] = target: ABL1(Q252H)-phosphorylated (Homo sapiens (Human), UniProt P00519, Q252H); details: 10000 nM, read-out: Percent Control
[2] = target: ABL1-phosphorylated (Homo sapiens (Human), UniProt P00519); details: 10000 nM, read-out: Percent Control
[3] = target: ACVR1 (Homo sapiens (Human), UniProt Q04771); details: ACVR1, 10000 nM; read-out: Percent Control
[4] = target: ACVR2B (Homo sapiens (Human), UniProt Q13705); details: 10000 nM, read-out: Percent Control
[5] = target: BMX (Homo sapiens (Human), UniProt P51813); details: 10000 nM, read-out: Percent Control
[6] = target: CDK3 (Homo sapiens (Human), UniProt Q00526); details: CDK3, 10000 nM; read-out: Percent Control
[7] = target: CDKL3 (Homo sapiens (Human), UniProt Q8IVW4); details: CDKL3, 10000 nM; read-out: Percent Control
[8] = target: CSNK1E (Homo sapiens (Human), UniProt P49674); details: 10000 nM, read-out: Percent Control
[9] = target: CSNK2A2 (Homo sapiens (Human), UniProt P19784); details: CSNK2A2, 10000 nM; read-out: Percent Control
[10] = target: DMPK (Homo sapiens (Human), UniProt Q09013); details: 10000 nM, read-out: Percent Control
[11] = target: EGFR(L747-S752del, P753S) (Homo sapiens (Human), UniProt P00533, DEL747-752/P753S); details: 10000 nM, read-out: Percent Control
[12] = target: EIF2AK1 (Homo sapiens (Human), UniProt Q9BQI3); details: EIF2AK1, 10000 nM; read-out: Percent Control
[13] = target: EPHA7 (Homo sapiens (Human), UniProt Q15375); details: EPHA7, 10000 nM; read-out: Percent Control
[14] = target: ERBB2 (Homo sapiens (Human), UniProt P04626); details: ERBB2, 10000 nM; read-out: Percent Control
[15] = target: ERK4 (Homo sapiens (Human), UniProt P31152); details: ERK4, 10000 nM; read-out: Percent Control
[16] = target: GSK3B (Homo sapiens (Human), UniProt P49841); details: 10000 nM, read-out: Percent Control
[17] = target: HASPIN (Homo sapiens (Human), UniProt Q8TF76); details: 10000 nM, read-out: Percent Control
[18] = target: JAK3(JH1domain-catalytic) (Homo sapiens (Human), UniProt P52333); details: 10000 nM, read-out: Percent Control
[19] = target: MET(Y1235D) (Homo sapiens (Human), UniProt P08581, Y1235D); details: 10000 nM, read-out: Percent Control
[20] = target: NEK7 (Homo sapiens (Human), UniProt Q8TDX7); details: NEK7, 10000 nM; read-out: Percent Control
[21] = target: PIK3CA(E542K) (Homo sapiens (Human), UniProt P42336, E542K); details: 10000 nM, read-out: Percent Control
[22] = target: PIK3CA(H1047Y) (Homo sapiens (Human), UniProt P42336, H1047Y); details: 10000 nM, read-out: Percent Control
[23] = target: PIKFYVE (Homo sapiens (Human), UniProt Q9Y2I7); details: 10000 nM, read-out: Percent Control
[24] = target: PIM3 (Homo sapiens (Human), UniProt Q86V86); details: PIM3, 10000 nM; read-out: Percent Control
[25] = target: CDC2L5 (Homo sapiens (Human), UniProt Q14004); details: CDC2L5, 10000 nM; read-out: Percent Control
Method: (§1) Selectivity profiling of compound 3 among a panel of kinases was performed with KINOMEscan® as set forth below. The KINOMEscan® screening platform employs an active site-directed competition binding assay to quantitatively measure interactions between a test compound, e.g., compound 3, and more than 450 kinases and disease-relevant mutant variants.
(§2) Screening of compound 3 was conducted at a concentration of 10 μM by Eurofins DiscoverX. Activity is measured as the ability of compound 3 to displace the kinase from a solid support relative to a negative control (i.e., DMSO). The output is % control.

[26] = target: PRP4 (Homo sapiens (Human), UniProt Q13523); details: PRP4, 10000 nM; read-out: Percent Control
Method: as §1, §2

[27] = target: RPS6KA5(Kin.Dom.1-N-terminal) (Homo sapiens (Human), UniProt O75582); details: 10000 nM, read-out: Percent Control
[28] = target: SGK3 (Homo sapiens (Human), UniProt Q96BR1); details: SGK3, 10000 nM; read-out: Percent Control
[29] = target: TNK2 (Homo sapiens (Human), UniProt Q07912); details: TNK2, 10000 nM; read-out: Percent Control
[30] = target: VPS34 (Homo sapiens (Human), UniProt Q8NEB9); details: VPS34, 10000 nM; read-out: Percent Control
[31] = target: WNK4 (Homo sapiens (Human), UniProt Q96J92); details: WNK4, 10000 nM; read-out: Percent Control

Chain of EIF2AK1 (Q9BQI3 whole entry): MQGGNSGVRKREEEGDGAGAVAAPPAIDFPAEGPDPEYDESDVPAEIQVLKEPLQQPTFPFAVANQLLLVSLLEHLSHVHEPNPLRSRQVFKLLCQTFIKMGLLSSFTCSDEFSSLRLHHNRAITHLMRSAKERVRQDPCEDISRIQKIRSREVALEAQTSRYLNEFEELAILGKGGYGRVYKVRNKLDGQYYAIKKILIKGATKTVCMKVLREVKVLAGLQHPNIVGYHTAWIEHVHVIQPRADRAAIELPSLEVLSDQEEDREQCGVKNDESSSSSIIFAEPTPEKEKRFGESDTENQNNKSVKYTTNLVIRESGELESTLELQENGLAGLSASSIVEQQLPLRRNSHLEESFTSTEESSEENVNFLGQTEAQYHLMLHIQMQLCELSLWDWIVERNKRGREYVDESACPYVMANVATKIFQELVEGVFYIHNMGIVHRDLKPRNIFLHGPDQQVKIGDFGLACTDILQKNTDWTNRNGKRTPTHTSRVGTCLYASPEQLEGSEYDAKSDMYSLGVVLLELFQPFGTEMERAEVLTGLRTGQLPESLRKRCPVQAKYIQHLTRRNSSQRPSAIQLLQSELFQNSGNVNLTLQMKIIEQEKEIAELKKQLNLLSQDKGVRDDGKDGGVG
Chain of CDC2L5 (Q14004 whole entry, looked up): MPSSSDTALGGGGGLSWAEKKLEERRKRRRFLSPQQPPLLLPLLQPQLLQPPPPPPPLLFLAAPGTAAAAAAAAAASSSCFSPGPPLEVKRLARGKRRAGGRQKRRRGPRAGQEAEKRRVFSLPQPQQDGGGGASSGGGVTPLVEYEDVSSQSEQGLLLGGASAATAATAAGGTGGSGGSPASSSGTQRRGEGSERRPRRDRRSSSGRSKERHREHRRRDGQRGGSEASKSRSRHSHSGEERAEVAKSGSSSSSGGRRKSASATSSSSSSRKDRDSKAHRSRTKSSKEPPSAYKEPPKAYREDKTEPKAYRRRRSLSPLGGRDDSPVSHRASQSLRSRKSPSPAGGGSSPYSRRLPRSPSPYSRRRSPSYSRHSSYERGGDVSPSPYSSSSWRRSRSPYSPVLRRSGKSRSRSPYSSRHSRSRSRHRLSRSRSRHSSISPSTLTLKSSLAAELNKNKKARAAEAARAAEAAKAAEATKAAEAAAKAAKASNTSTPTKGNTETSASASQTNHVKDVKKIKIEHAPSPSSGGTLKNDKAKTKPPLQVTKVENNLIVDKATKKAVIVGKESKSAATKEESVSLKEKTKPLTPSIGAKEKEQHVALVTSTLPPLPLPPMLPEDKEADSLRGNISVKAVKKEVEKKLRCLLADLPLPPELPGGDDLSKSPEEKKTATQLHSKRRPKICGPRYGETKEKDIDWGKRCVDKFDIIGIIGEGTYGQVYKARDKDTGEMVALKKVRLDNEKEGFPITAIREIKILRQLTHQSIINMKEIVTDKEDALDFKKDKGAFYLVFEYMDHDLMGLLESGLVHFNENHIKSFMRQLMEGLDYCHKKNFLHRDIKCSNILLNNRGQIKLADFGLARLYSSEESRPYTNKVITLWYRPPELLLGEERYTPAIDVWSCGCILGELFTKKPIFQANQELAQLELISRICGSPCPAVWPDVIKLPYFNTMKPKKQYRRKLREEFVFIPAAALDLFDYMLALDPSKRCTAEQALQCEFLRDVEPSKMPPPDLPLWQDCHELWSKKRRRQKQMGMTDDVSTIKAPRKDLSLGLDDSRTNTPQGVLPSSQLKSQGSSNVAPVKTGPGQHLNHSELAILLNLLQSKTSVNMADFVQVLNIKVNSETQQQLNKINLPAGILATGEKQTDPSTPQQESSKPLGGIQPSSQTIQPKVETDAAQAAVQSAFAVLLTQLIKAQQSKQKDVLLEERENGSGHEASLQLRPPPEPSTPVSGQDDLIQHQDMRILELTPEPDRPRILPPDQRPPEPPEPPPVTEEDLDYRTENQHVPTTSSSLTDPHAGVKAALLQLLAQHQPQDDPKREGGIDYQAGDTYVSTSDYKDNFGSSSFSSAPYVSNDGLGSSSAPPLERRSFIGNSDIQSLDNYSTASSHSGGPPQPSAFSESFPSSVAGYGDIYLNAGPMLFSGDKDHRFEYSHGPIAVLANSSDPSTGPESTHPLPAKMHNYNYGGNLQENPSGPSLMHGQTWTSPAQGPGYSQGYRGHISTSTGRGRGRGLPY
Chain of RPS6KA5(Kin.Dom.1-N-terminal) (O75582 49-318): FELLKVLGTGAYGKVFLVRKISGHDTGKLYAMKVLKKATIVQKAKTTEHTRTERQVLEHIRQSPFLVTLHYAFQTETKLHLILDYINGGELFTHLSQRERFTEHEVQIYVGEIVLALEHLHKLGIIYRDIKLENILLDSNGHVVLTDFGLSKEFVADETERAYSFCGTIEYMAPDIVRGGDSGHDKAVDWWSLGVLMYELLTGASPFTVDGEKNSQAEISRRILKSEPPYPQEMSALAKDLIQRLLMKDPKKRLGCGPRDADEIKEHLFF
Chain of PIK3CA(E542K) (P42336 whole entry E542K): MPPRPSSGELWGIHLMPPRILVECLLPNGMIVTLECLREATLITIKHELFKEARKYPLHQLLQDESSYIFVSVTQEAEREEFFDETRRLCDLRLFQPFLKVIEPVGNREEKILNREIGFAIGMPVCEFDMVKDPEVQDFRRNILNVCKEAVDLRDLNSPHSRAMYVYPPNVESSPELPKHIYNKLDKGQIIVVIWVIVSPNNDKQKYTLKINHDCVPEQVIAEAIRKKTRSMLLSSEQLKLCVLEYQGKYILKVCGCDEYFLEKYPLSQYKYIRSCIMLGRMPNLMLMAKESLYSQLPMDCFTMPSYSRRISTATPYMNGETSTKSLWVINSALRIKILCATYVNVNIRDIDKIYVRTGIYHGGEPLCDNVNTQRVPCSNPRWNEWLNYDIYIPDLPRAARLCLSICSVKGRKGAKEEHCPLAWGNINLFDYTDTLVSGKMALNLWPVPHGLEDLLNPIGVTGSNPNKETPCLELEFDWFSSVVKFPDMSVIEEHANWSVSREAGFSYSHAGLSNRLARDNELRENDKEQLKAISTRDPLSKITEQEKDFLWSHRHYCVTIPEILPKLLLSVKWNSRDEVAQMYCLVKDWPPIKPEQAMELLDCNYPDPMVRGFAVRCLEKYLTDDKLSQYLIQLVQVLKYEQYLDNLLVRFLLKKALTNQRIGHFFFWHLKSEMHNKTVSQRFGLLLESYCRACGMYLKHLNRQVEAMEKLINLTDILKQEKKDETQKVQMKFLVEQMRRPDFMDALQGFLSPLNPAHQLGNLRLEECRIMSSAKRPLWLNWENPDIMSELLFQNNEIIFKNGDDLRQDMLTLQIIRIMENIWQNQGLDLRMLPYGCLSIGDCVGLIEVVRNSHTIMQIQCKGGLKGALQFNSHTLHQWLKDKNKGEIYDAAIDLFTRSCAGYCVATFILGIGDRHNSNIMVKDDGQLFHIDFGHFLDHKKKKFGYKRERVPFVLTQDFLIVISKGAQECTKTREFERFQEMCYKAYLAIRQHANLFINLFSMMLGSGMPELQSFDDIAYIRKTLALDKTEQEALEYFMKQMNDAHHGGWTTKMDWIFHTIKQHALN
Chain of ACVR2B (Q13705 19-512): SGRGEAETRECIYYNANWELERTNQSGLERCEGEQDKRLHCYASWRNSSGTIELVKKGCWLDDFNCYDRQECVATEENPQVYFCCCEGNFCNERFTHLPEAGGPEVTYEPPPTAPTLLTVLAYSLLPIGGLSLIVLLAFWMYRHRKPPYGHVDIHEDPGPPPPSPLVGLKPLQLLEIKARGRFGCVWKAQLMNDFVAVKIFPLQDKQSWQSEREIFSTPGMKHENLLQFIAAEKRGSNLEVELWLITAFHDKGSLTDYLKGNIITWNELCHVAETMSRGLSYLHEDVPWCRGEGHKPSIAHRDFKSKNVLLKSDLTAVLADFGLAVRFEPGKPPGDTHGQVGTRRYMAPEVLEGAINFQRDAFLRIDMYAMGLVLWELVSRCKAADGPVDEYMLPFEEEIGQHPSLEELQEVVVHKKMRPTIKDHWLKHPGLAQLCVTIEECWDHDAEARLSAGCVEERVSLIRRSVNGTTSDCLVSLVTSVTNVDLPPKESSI
Chain of SGK3 (Q96BR1 whole entry): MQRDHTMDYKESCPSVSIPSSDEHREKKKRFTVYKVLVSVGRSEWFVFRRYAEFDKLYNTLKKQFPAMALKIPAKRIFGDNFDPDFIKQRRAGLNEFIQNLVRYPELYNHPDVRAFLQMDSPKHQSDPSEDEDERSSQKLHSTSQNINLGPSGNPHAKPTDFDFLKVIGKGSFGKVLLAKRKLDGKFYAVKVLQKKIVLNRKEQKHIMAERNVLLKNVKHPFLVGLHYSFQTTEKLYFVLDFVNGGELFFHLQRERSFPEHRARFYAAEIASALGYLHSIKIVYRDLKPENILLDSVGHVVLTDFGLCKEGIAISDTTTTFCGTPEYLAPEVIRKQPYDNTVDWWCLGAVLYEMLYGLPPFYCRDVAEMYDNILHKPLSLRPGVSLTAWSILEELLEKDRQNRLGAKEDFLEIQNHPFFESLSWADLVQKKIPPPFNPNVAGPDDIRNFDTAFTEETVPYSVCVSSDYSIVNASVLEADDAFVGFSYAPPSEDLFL
Chain of ACVR1 (Q04771 21-509): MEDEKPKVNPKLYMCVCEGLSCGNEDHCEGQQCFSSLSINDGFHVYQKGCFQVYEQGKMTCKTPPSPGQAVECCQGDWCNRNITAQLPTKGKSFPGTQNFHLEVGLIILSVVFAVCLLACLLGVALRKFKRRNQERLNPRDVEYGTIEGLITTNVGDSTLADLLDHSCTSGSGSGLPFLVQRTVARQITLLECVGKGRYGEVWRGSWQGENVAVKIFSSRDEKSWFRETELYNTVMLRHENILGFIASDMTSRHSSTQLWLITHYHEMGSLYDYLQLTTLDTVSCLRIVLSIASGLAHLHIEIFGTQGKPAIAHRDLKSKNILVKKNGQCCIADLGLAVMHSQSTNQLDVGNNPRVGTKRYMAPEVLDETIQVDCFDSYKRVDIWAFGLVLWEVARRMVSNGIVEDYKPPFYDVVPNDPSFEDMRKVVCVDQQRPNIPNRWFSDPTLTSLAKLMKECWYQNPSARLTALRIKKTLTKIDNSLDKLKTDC
Chain of PIK3CA(H1047Y) (P42336 whole entry H1047Y): as the sequence (P42336 whole entry E542K) above, with K542E, H1047Y counted along it

Structure (SMILES): COc1cc(N2CCC(N3CCN(C)CC3)CC2)ccc1Nc1ncc2c(n1)N(C)c1sc(C)nc1C(=O)N2 [Compound 3, 6-((2-methoxy-4-(4-(4-methylpiperazin-1-yl)piperidin-1-yl)phenyl)amino)-2,4-dimethyl-4,9-dihydro-10H-pyrimido[5,4-b]thiazolo[5,4-e][1,4]diazepin-10-one]
- remaining binding at 10 µM [1]: 9.7%
- remaining binding at 10 µM [2]: 17%
- remaining binding at 10 µM [3]: 93%
- remaining binding at 10 µM [4]: 92%
- remaining binding at 10 µM [5]: 76%
- remaining binding at 10 µM [6]: 87%
- remaining binding at 10 µM [7]: 75%
- remaining binding at 10 µM [8]: 82%
- remaining binding at 10 µM [9]: 87%
- remaining binding at 10 µM [10]: 99%
- remaining binding at 10 µM [11]: 99%
- remaining binding at 10 µM [12]: 73%
- remaining binding at 10 µM [13]: 71%
- remaining binding at 10 µM [14]: 98%
- remaining binding at 10 µM [15]: 84%
- remaining binding at 10 µM [16]: 95%
- remaining binding at 10 µM [17]: 96%
- remaining binding at 10 µM [18]: 83%
- remaining binding at 10 µM [19]: 90%
- remaining binding at 10 µM [20]: 63%
- remaining binding at 10 µM [21]: 100%
- remaining binding at 10 µM [22]: 91%
- remaining binding at 10 µM [23]: 98%
- remaining binding at 10 µM [24]: 70%
- remaining binding at 10 µM [25]: 100%
- remaining binding at 10 µM [26]: 100%
- remaining binding at 10 µM [27]: 70%
- remaining binding at 10 µM [28]: 100%
- remaining binding at 10 µM [29]: 20%
- remaining binding at 10 µM [30]: 100%
- remaining binding at 10 µM [31]: 100%

Structure (SMILES): COc1cc(N2CCC(N3CCN(C)CC3)CC2)ccc1Nc1ncc2c(n1)N(C)c1sc(C)nc1C(=O)N2C [Compound 5, 6-((2-methoxy-4-(4-(4-methylpiperazin-1-yl)piperidin-1-yl)phenyl)amino)-2,4,9-trimethyl-4,9-dihydro-10H-pyrimido[5,4-b]thiazolo[5,4-e][1,4]diazepin-10-one]
- remaining binding at 10 µM [1]: 100%
- remaining binding at 10 µM [2]: 79%
- remaining binding at 10 µM [3]: 93%
- remaining binding at 10 µM [4]: 100%
- remaining binding at 10 µM [5]: 90%
- remaining binding at 10 µM [6]: 100%
- remaining binding at 10 µM [7]: 100%
- remaining binding at 10 µM [8]: 100%
- remaining binding at 10 µM [9]: 93%
- remaining binding at 10 µM [10]: 100%
- remaining binding at 10 µM [11]: 91%
- remaining binding at 10 µM [12]: 100%
- remaining binding at 10 µM [13]: 97%
- remaining binding at 10 µM [14]: 100%
- remaining binding at 10 µM [15]: 100%
- remaining binding at 10 µM [16]: 99%
- remaining binding at 10 µM [17]: 89%
- remaining binding at 10 µM [18]: 100%
- remaining binding at 10 µM [19]: 98%
- remaining binding at 10 µM [20]: 100%
- remaining binding at 10 µM [21]: 93%
- remaining binding at 10 µM [22]: 100%
- remaining binding at 10 µM [23]: 60%
- remaining binding at 10 µM [24]: 100%
- remaining binding at 10 µM [25]: 100%
- remaining binding at 10 µM [26]: 100%
- remaining binding at 10 µM [27]: 91%
- remaining binding at 10 µM [28]: 100%
- remaining binding at 10 µM [29]: 87%
- remaining binding at 10 µM [30]: 89%
- remaining binding at 10 µM [31]: 100%
